Experimental data taken from PubChem BioAssay (NCI).
Several values for one entry are separate records, joined by “and”; a condition that tells them apart may be missing. Equal values may be shown once.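 A five-concentration, 48-hour dose response in 96-well plates underlies each endpoint, interpolated linearly between surrounding concentrations. GI50 = concentration required for 50% inhibition of growth. At the TGI there is no net growth.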

Tests used:
Test in all cases: inhibition of tumour cell growth, NCI panel, 48 h
MDA-MB-435 = test system: MDA-MB-435
EKVX NSCLC = test system: EKVX NSCLC
HT29 colon = test system: HT29 colon
MDA-MB-231 breast = test system: MDA-MB-231 breast
UO-31 renal = test system: UO-31 renal
OVCAR-4 ovarian = test system: OVCAR-4 ovarian
SK-OV-3 ovarian = test system: SK-OV-3 ovarian
OVCAR-8 ovarian = test system: OVCAR-8 ovarian
RPMI-8226 leukemia = test system: RPMI-8226 leukemia
HCT-15 colon = test system: HCT-15 colon

## COC(=O)[C@@H](C)C[C@H](Cc1ccccc1)NC(=O)c1csc([C@@H](C[C@H](C(C)C)N(C)C(=O)[C@@H](NC(=O)[C@H]2CCCN2C)C2CC2)OC(C)=O)n1
MDA-MB-435
  GI50: < 0.0025 µM
  TGI: 0.00049 µM and < 0.0025 µM
EKVX NSCLC
  GI50: 0.00833 µM
HT29 colon
  GI50: 0.000503 µM and 0.0025 µM
  TGI: > 25 µM
MDA-MB-231 breast
  GI50: 0.00165 µM and < 0.0025 µM
  TGI: < 0.0025 µM
UO-31 renal
  TGI: > 25 µM
OVCAR-4 ovarian
  TGI: > 25 µM
SK-OV-3 ovarian
  GI50: 0.0083 µM and 0.0025 µM
  TGI: > 25 µM
OVCAR-8 ovarian
  GI50: 0.00262 µM and 0.0025 µM
  TGI: > 25 µM
RPMI-8226 leukemia
  GI50: 0.000262 µM and 0.0025 µM
  TGI: 12.2 µM
HCT-15 colon
  GI50: 0.00495 µM and 0.0025 µM
  TGI: > 25 µM

## COc1ccc(-c2cn(-c3cc(OC)c(OC)c(OC)c3)c(=O)[nH]2)cc1OC
MDA-MB-435
  GI50: > 100 µM
  TGI: > 100 µM
EKVX NSCLC
  GI50: > 100 µM
  TGI: > 100 µM
HT29 colon
  GI50: > 100 µM
  TGI: > 100 µM
MDA-MB-231 breast
  GI50: > 100 µM
  TGI: > 100 µM
UO-31 renal
  GI50: > 100 µM
  TGI: > 100 µM
OVCAR-4 ovarian
  GI50: > 100 µM
  TGI: > 100 µM
SK-OV-3 ovarian
  GI50: > 100 µM
  TGI: > 100 µM
OVCAR-8 ovarian
  GI50: > 100 µM
  TGI: > 100 µM
RPMI-8226 leukemia
  GI50: > 100 µM
  TGI: > 100 µM
HCT-15 colon
  GI50: > 100 µM
  TGI: > 100 µM

## [Cu+2].[NH-]C(CC(=O)O)C(=O)O.[NH-]C(CC(=O)O)C(=O)O (configuration not stated)
MDA-MB-435
  GI50: 40.2 µM
  TGI: > 100 µM
EKVX NSCLC
  GI50: > 100 µM
  TGI: > 100 µM
HT29 colon
  GI50: > 100 µM
  TGI: > 100 µM
MDA-MB-231 breast
  GI50: > 100 µM
  TGI: > 100 µM
UO-31 renal
  GI50: > 100 µM
  TGI: > 100 µM
OVCAR-4 ovarian
  GI50: 99.2 µM
  TGI: > 100 µM
SK-OV-3 ovarian
  GI50: > 100 µM
  TGI: > 100 µM
OVCAR-8 ovarian
  GI50: > 100 µM
  TGI: > 100 µM
RPMI-8226 leukemia
  GI50: > 100 µM
  TGI: > 100 µM
HCT-15 colon
  GI50: > 100 µM
  TGI: > 100 µM

## O=c1oc2ccc(Br)cc2c(=O)n1-c1ccc(Cl)cc1F
MDA-MB-435
  GI50: 1.35 µM
  TGI: 6.23 µM
EKVX NSCLC
  GI50: 1.45 µM
  TGI: 7.81 µM
HT29 colon
  GI50: 3.35 µM
  TGI: > 34 µM
MDA-MB-231 breast
  GI50: 0.897 µM
  TGI: 5.99 µM
UO-31 renal
  GI50: 0.349 µM
  TGI: 3.03 µM
OVCAR-4 ovarian
  GI50: 0.887 µM
  TGI: 28.1 µM
SK-OV-3 ovarian
  GI50: 0.672 µM
  TGI: 4.48 µM
OVCAR-8 ovarian
  GI50: 1.7 µM
  TGI: > 26.2 µM
RPMI-8226 leukemia
  GI50: 0.446 µM
  TGI: 2.97 µM
HCT-15 colon
  GI50: 1.7 µM
  TGI: 9.52 µM

## N#CC1=C(N)Oc2c(sc3c(Br)cccc23)C1c1ccc(Cl)cc1 (configuration not stated)
MDA-MB-435
  GI50: 0.277 µM
  TGI: 1.01 µM
EKVX NSCLC
  GI50: 2.23 µM
  TGI: 17.4 µM
HT29 colon
  GI50: 0.711 µM
  TGI: 2.85 µM
MDA-MB-231 breast
  GI50: 1.32 µM
  TGI: 4.69 µM
UO-31 renal
  GI50: 0.614 µM
  TGI: 2.54 µM
OVCAR-4 ovarian
  GI50: 1.13 µM
  TGI: 16.1 µM
SK-OV-3 ovarian
  GI50: 0.464 µM
  TGI: 11.6 µM
OVCAR-8 ovarian
  GI50: 1.71 µM
  TGI: 8.29 µM
RPMI-8226 leukemia
  GI50: 0.496 µM
  TGI: 9.25 µM
HCT-15 colon
  GI50: 0.403 µM
  TGI: 2.25 µM

## O=C(O)c1cn(C2CC2)c2cc(N3CCN(Cc4c(O)ccc5ccccc45)CC3)c(F)cc2c1=O
MDA-MB-435
  GI50: 4.18 µM
  TGI: > 100 µM
EKVX NSCLC
  GI50: > 100 µM
  TGI: > 100 µM
HT29 colon
  GI50: 8.5 µM
  TGI: > 100 µM
MDA-MB-231 breast
  GI50: 5.15 µM
  TGI: > 100 µM
UO-31 renal
  GI50: 3.71 µM
  TGI: > 100 µM
OVCAR-4 ovarian
  GI50: 7 µM
  TGI: > 100 µM
SK-OV-3 ovarian
  GI50: 11.7 µM
  TGI: > 100 µM
OVCAR-8 ovarian
  GI50: 4.61 µM
  TGI: > 100 µM
RPMI-8226 leukemia
  GI50: 12 µM
  TGI: > 100 µM
HCT-15 colon
  GI50: 3.64 µM
  TGI: > 100 µM

## NC(N)=Nc1ccc(/C=C2\C=Cc3ccccc32)cc1
MDA-MB-435
  GI50: 1.84 µM
  TGI: 3.92 µM
EKVX NSCLC
  GI50: 4.74 µM
  TGI: 22.2 µM
HT29 colon
  GI50: 2.05 µM
  TGI: 4.11 µM
MDA-MB-231 breast
  GI50: 1.71 µM
  TGI: 3.83 µM
UO-31 renal
  GI50: 2.15 µM
  TGI: 6.58 µM
OVCAR-4 ovarian
  GI50: 2.89 µM
  TGI: 15.1 µM
SK-OV-3 ovarian
  GI50: 6.14 µM
  TGI: 22.9 µM
OVCAR-8 ovarian
  GI50: 2.22 µM
  TGI: 5.67 µM
RPMI-8226 leukemia
  GI50: 3.18 µM
  TGI: 14.4 µM
HCT-15 colon
  GI50: 2.13 µM
  TGI: 4.55 µM

## O=[N+]([O-])c1oc2ccc3ccccc3c2c1CCO
MDA-MB-435
  TGI: 3.16 µM
EKVX NSCLC
  TGI: 2.09 µM
HT29 colon
  TGI: 25.7 µM
MDA-MB-231 breast
  TGI: 59.3 µM
UO-31 renal
  TGI: 3.89 µM
OVCAR-4 ovarian
  TGI: 17.3 µM
SK-OV-3 ovarian
  TGI: 5.1 µM
OVCAR-8 ovarian
  TGI: 23.1 µM
RPMI-8226 leukemia
  TGI: 22.2 µM
HCT-15 colon
  TGI: 34.2 µM

## CCCN(CCC)c1ccc(C=O)c(C)c1
MDA-MB-435
  GI50: 32.6 µM
  TGI: > 100 µM
EKVX NSCLC
  GI50: 24.2 µM
  TGI: > 100 µM
HT29 colon
  GI50: 33.5 µM
  TGI: > 100 µM
MDA-MB-231 breast
  GI50: 41.3 µM
  TGI: > 100 µM
UO-31 renal
  GI50: 21.5 µM
  TGI: > 100 µM
OVCAR-4 ovarian
  GI50: 21.5 µM
  TGI: > 100 µM
SK-OV-3 ovarian
  GI50: > 100 µM
  TGI: > 100 µM
OVCAR-8 ovarian
  GI50: 57.2 µM
  TGI: > 100 µM
RPMI-8226 leukemia
  GI50: 69.4 µM
  TGI: > 100 µM
HCT-15 colon
  GI50: 41.6 µM
  TGI: > 100 µM

## Cc1sc2c(c1C)C(c1ccc(Cl)cc1)=N[C@@H](CC(=O)NCCCN1CCN(C)CC1)c1nnc(C)n1-2
MDA-MB-435
  GI50: 0.621 µM
  TGI: > 100 µM
EKVX NSCLC
  GI50: > 34.6 µM
  TGI: > 100 µM
HT29 colon
  GI50: 0.198 µM
  TGI: > 100 µM
MDA-MB-231 breast
  GI50: 0.198 µM
  TGI: > 100 µM
UO-31 renal
  GI50: 3.83 µM
  TGI: > 100 µM
OVCAR-4 ovarian
  GI50: 0.748 µM
  TGI: > 100 µM
SK-OV-3 ovarian
  GI50: 0.309 µM
  TGI: > 42.3 µM
OVCAR-8 ovarian
  GI50: 4.96 µM
  TGI: > 100 µM
RPMI-8226 leukemia
  GI50: 0.0417 µM
  TGI: 5.38 µM
HCT-15 colon
  GI50: 16.8 µM
  TGI: > 100 µM
